According to the supplement of paper PMC11451515:

Test system: NOMO1
Assay: cell viability relative to DMSO control; higher = less cytotoxic
Conditions: 48 h
Outline: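 Three leukemia lines were tested: NOMO1 and SEM at 500 cells/well and P12-Ichikawa at 1000 cells/well. Each was adapted for at least four passages in each medium and seeded in 5 μl in 1536-well plates, and library compounds in DMSO were pin-dosed from 47 μM to 0.79 nM in 11 threefold steps. After 48 h at 37°C, CellTiter-Glo One luminescence was read. Viability is a percentage relative to DMSO wells on each plate, with cell-free wells as background.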

[1] = RPMI 5 mM glucose + 10% FBS, 0.000781 µM
[2] = RPMI 5 mM glucose + 10% FBS, 0.00234 µM
[3] = RPMI 5 mM glucose + 10% FBS, 0.00702 µM
[4] = RPMI 5 mM glucose + 10% FBS, 0.0211 µM
[5] = RPMI 5 mM glucose + 10% FBS, 0.0632 µM
[6] = RPMI 5 mM glucose + 10% FBS, 0.19 µM
[7] = RPMI 5 mM glucose + 10% FBS, 0.569 µM
[8] = RPMI 5 mM glucose + 10% FBS, 1.71 µM
[9] = RPMI 5 mM glucose + 10% FBS, 5.12 µM
[10] = RPMI 5 mM glucose + 10% FBS, 15.4 µM
[11] = RPMI 5 mM glucose + 10% FBS, 46.1 µM
[12] = RPMI 5 mM glucose + 10% dialyzed FBS, 0.000781 µM
[13] = RPMI 5 mM glucose + 10% dialyzed FBS, 0.00234 µM
[14] = RPMI 5 mM glucose + 10% dialyzed FBS, 0.00702 µM
[15] = RPMI 5 mM glucose + 10% dialyzed FBS, 0.0211 µM
[16] = RPMI 5 mM glucose + 10% dialyzed FBS, 0.0632 µM
[17] = RPMI 5 mM glucose + 10% dialyzed FBS, 0.19 µM
[18] = RPMI 5 mM glucose + 10% dialyzed FBS, 0.569 µM
[19] = RPMI 5 mM glucose + 10% dialyzed FBS, 1.71 µM
[20] = RPMI 5 mM glucose + 10% dialyzed FBS, 5.12 µM
[21] = RPMI 5 mM glucose + 10% dialyzed FBS, 15.4 µM
[22] = RPMI 5 mM glucose + 10% dialyzed FBS, 46.1 µM

| Compound | cell viability [1] [%] | cell viability [2] [%] | cell viability [3] [%] | cell viability [4] [%] | cell viability [5] [%] | cell viability [6] [%] | cell viability [7] [%] | cell viability [8] [%] | cell viability [9] [%] | cell viability [10] [%] | cell viability [11] [%] | cell viability [12] [%] | cell viability [13] [%] | cell viability [14] [%] | cell viability [15] [%] | cell viability [16] [%] | cell viability [17] [%] | cell viability [18] [%] | cell viability [19] [%] | cell viability [20] [%] | cell viability [21] [%] | cell viability [22] [%] |
| --- | --- | --- | --- | --- | --- | --- | --- | --- | --- | --- | --- | --- | --- | --- | --- | --- | --- | --- | --- | --- | --- | --- |
| CCN(CC)CC#CCOC(=O)C(O)(c1ccccc1)C1CCCCC1 (stereo unspecified) | 133 | 115 | 122 | 113 | 138 | 127 | 117 | 137 | 120 | 125 | 117 | 128 | 121 | 120 | 124 | 140 | 123 | 140 | 132 | 135 | 134 | 120 |
| NC[C@H]1CC[C@H](C(=O)O)CC1 | 112 | 133 | 105 | 109 | 119 | 128 | 110 | 110 | 116 | 121 | 120 | – | – | – | – | – | – | – | – | – | – | – |
| ClC1=C(N\C2=N\CCN2)C3=NSN=C3C=C1 | 108 | 119 | 120 | 123 | 112 | 118 | 119 | 135 | 117 | 125 | 144 | 107 | 127 | 114 | 132 | 133 | 128 | 140 | 143 | 161 | 153 | 140 |
| C[C@H](NC(=O)/C(C#N)=C/c1cccc(Br)n1)c1ccccc1 | 104 | 104 | 123 | 112 | 119 | 98.1 | 103 | 87.7 | 19 | 8.24 | 7.32 | 99.5 | 115 | 109 | 114 | 107 | 129 | 115 | 93.8 | 38.8 | 8.68 | 6.9 |
| CN1[C@@H]2CC[C@H]1CC(OC(=O)c1c[nH]c3ccccc13)C2 (stereo partly specified) | 115 | 125 | 120 | 114 | 129 | 112 | 106 | 117 | 124 | 114 | 99.3 | 119 | 127 | 119 | 107 | 109 | 115 | 113 | 118 | 119 | 104 | 94.9 |
| CN\1C(=O)/C(=C(\N=C1N2CCCC[S+]2([O-])=O)C(=O)NCC3=CC=C(F)C=C3)O | 113 | 105 | 116 | 124 | 116 | 107 | 112 | 123 | 115 | 113 | 106 | 123 | 116 | 119 | 123 | 111 | 119 | 113 | 107 | 118 | 105 | 99.2 |
